Reference: PMC3758303 (PLoS ONE, 2013)

Columns and labels:
[1] = WST-1 cell proliferation assay, 1B-4RL cells; assay type: cell-based; conditions: human
Procedure: (§1) The WST-1 cell proliferation assay was performed as described previously. Briefly, The cells were plated onto 96-well plates (1×10^3 cells per well) in triplicate and then treated with each reagent at several concentrations for 72 hrs. After treatment, the cells were subjected to the WST-1 cell proliferation assay (Takara Bio, Otsu, Japan) according to the manufacturer’s protocol. This assay is based on the enzymatic cleavage of the tetrazolium salt WST-1 to formazan by cellular mitochondrial dehydrogenases present in viable cells. Therefore, there are […] the value of the WST-1 assay becomes zero. The experiments were performed at least in triplicate. From the assay results, the 50% cytotoxic concentration (CC50) of each reagent was determined.

[2] = WST-1 cell proliferation assay, sOR cells; assay type: cell-based; conditions: human
Procedure: as §1

[3] = molecular target: T1, renilla luciferase (RL) activity (Renilla reniformis, UniProt P27652); assay: Direct effect on RL activity in cell lysate; assay type: biochemical
T1 construct: expressed in transfected cells; host or cells: OR6 (HuH-7-derived) and ORL8 (Li23-derived) cells harbouring genome-length HCV-RNA that encodes RL; cell lysate
Excerpt: The genome-length HCV-RNA used in the assay systems described above contains three non-natural elements: RL, neomycin phosphotransferase, and an internal ribosomal entry site of encephalomyocarditis virus. To exclude the possibility that the anti-HCV activity of N-89 or N-251 was due to the inhibition of these three exogenous elements, we examined the anti-HCV activities of N-89 and N-251 using the authentic 9.6 kb HCV-RNA-replicating HCV-O/RLGE cells, which were developed by the introduction of in vitro synthesized HCV-O/RLGE RNA (Fig. 2A) into OR6c cured cells.
Supplementary file pone.0072519.s002.tif: Figure S2 No inhibition of RL activity by N-89 or N-251. […] N-89 or N-251 was added to the OR6 cell lysate, and then an RL assay was performed. […] N-89 or N-251 was added to the ORL8 cell lysate, and then an RL assay was performed. (TIF) Click here for additional data file.

[4] = test system: HCV-JFH-1 strain (genotype 2a) in Li23-derived D7 cells; assay: JFH-1 reporter assay system, D7 cells; assay type: cell-based, hepatitis C virus; conditions: D7 cells inoculated with JR/C5B/BX-2 supernatant, RL assay
Procedure: HCV infection was performed as described previously. RSc and D7 cells were inoculated with supernatant from RSc cells replicating JR/C5B/BX-2 [29].
Figure 2 Characterization of anti-HCV activities of N-89 and N-251. (A) Schematic gene organization of authentic HCV-RNA (HCV-O/RLGE). The positions of four adaptive mutations - Q1112R, P1115L, E1202G, and K1609E - are indicated by a black star. (B) N-89 and N-251 inhibited authentic HCV-RNA replication. The cells harboring HCV-O/RLGE RNA [19] were treated with N-89 (left panel) and N-251 (right panel) for 72 hrs, followed by real-time LightCycler PCR (black circles in the upper panel) and WST-1 assay (open triangles in the upper panel). The relative value (%) calculated at each point, when the level in non-treated cells was assigned as 100%, is presented here. Data are expressed as the means±standard deviation of triplicate assays. Western blot analysis (lower panels) was performed as described in Fig. 1B. […]
We next examined whether N-89 and N-251 worked in an HCV production system using HCV-JFH-1 strain (genotype 2a). […] To clarify whether anti-HCV activity depends on the difference of genotype or assay model, we evaluated the activities of N-89 and N-251 using RSc-JRN/35B [Ikeda et al., submitted] cells harboring a subgenomic HCV-JFH-1 replicon as an additional assay.

[5] = test system: genome-length HCV-RNA (O strain of genotype 1b) replication in HuH-7-derived OR6 cells; assay: OR6 RL assay; assay type: cell-based, hepatitis C virus; conditions: for EC50: Hepatitis C virus, OR6 assay, HuH-7, HCV strain O, 72 hrs, RL assay
Procedure: (§2) RSc and D7 cells were derived from the cell lines HuH-7 and Li23, respectively, were cultured as described previously, [29]. HuH-7-derived OR6 [13], AH1R [30], and 1B-4R [Ikeda et al., submitted] cells harboring genome-length HCV-RNA and HuH-7-derived polyclonal sOR [31], and RSc-JRN/35B [Ikeda et al., submitted] cells harboring an HCV subgenomic replicon were cultured with medium in the presence of G418 (0.3 mg/ml; Geneticin, Invitrogen, Carlsbad, CA) as described previously. Li23-derived ORL8 [20], ORL11 [20], 1B-4RL [Ikeda et al., submitted], and KAH5RL [Ikeda et al., submitted] cells harboring genome-length HCV-RNA were maintained with medium in the presence of G418 (0.3 mg/ml) as described previously. Li23-derived polyclonal sORL8 and sORL11 cells harboring an HCV replicon, which were established by the transfection of ORN/3-5B/QR,KE,SR RNA into the cured OL8 and OL11 cells, respectively, were also cultured with medium in the presence of G418 (0.3 mg/ml) as described previously. Cured cells, from which the HCV-RNA had been eliminated by IFN treatment, were also maintained with medium in the absence of G418 as described previously. […] Therefore, when HCV-RNA is excluded from the cells or when its level is decreased, the cells are killed in the presence of G418.
RL assay was performed as described previously, [24]. Briefly, the cells were plated onto 24-well plates (2×10^4 cells per well) in triplicate and then treated with each reagent at several concentrations for 72 hrs. After treatment, the cells were subjected to luciferase assay using the RL assay system (Promega, Madison, WI). The experiments were performed at least in triplicate. From the assay results, the 50% effective concentration (EC50) of each reagent was determined.
(§3) The SI value of each reagent was determined by dividing the CC50 value by the EC50 value.

[6] = test system: genome-length HCV-RNA (1B-4 strain of genotype 1b) replication in HuH-7-derived 1B-4R cells; assay: 1B-4R RL assay; assay type: cell-based; conditions: Hepatitis C virus, 1B-4R assay, HuH-7, HCV strain 1B-4, 72 hrs
Procedure: as §2, with “G418. […]” for “G418.”
as §3

[7] = WST-1 cell proliferation assay, KAH5RL cells; assay type: cell-based; conditions: human
Procedure: as §1

[8] = test system: genome-length HCV-RNA (AH1 strain of genotype 1b) replication in HuH-7-derived AH1R cells; assay: AH1R RL assay; assay type: cell-based; conditions: Hepatitis C virus, HuH-7, HCV strain AH1, 72 hrs
Procedure: as §2, with “G418. […]” for “G418.”
as §3

[9] = test system: genome-length HCV-RNA (O strain of genotype 1b) replication in Li23-derived ORL11 cells; assay: ORL11 RL assay; assay type: cell-based; conditions: Hepatitis C virus, 72 hrs
Procedure: as §2, with “G418. […]” for “G418.”
as §3

[10] = reagent added along with substrate to OR6 cell lysate
[11] = reagent added along with substrate to ORL8 cell lysate

T1 sequence (P27652 whole entry): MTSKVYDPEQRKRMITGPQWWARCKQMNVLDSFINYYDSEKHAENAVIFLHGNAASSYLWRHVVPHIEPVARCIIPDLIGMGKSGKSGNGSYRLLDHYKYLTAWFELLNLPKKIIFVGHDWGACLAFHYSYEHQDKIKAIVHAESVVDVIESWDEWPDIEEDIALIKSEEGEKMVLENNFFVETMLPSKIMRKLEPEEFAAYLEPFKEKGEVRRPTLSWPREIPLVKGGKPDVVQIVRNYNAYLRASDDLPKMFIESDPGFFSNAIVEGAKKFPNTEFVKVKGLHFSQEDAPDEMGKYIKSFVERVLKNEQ

In the case of `OCCCCCCC1COOC2(CCCCCCCCCCC2)OOC1` [N-251, 6-(1,2,6,7-tetraoxaspiro[7.11]nonadec-4-yl)hexan-1-ol], the CC50 at 72 h [1] is reported as 1900 nM, the CC50 at 72 h [2] is reported as 2200 nM and the “direct effect on RL activity” value [3, 10] is reported as “No suppressive effects”. The “direct effect on RL activity” value [3, 11] was “No suppressive effects”, the “anti-HCV activity for the HCV-JFH-1 strain” value [4] was “did not show anti-HCV activity” and the EC50 [5] was 690 nM. It also gave an EC50 [6] of 980 nM, a CC50 at 72 h [7] of 2800 nM and an EC50 [8] of 140 nM. It also gave an EC50 [9] of 59 nM.

For `C1CCCCCC2(CCCCC1)OOCCCOO2` [N-89, 1,2,6,7-Tetraoxaspiro[7.11]nonadecane], the CC50 at 72 h [1] was 2400 nM, the CC50 at 72 h [2] was 1700 nM and the “direct effect on RL activity” value [3, 10] was “No suppressive effects”. For the same molecule, the “direct effect on RL activity” value [3, 11] was “No suppressive effects”, the “anti-HCV activity for the HCV-JFH-1 strain” value [4] was “did not show anti-HCV activity” and the “anti-HCV activity (suppression)” value ([5]; 8 µM in OR6 cells, without a decrease in cell viability) was > 99%. For the same molecule, the EC50 [5] was 660 nM, the EC50 [6] was 420 nM and the CC50 at 72 h [7] was 2500 nM. The EC50 [8] was 25 nM and the EC50 [9] was 45 nM.
